Test results taken from patent publication EP1462117A1, “Method for in vivo detection of antipsychotic properties of dopamine D3 receptor ligands” (priority 2003, dated 2004).
Counter-ions that a name gives are not always drawn.

How the values were obtained:
Swiss mice [1] = assay: Locomotor hyperactivity induced by continuous infusion of MK-801 (osmotic minipumps); assay type: in vivo
Method: Male Swiss mice (IFFA CREDO, France), weighing 26-28 g, were housed six per cage (25 × 15 ×13 cm), on a 12 h/12 h light/dark cycle (lights on at 07:00 a.m.), with food and water freely available. Room temperature ranged from 20° to 22°C and humidity varied between 55% and 65%.
(§1) Dizocilpine, as (+)-MK-801 maleate (Sigma), dissolved in 0.9% NaCl (saline), and its respective vehicle solution, was continuously infused via osmotic minipumps (Model 1007D, Alzet Corp.). Minipumps were filled 6 h prior to implantation and placed in a sterile saline water bath at 37°C. Taking into consideration the average weight of the mice at the time of testing, and the rate of the minipump delivery (specified by the manufacturer), the MK-801 concentration was adjusted to deliver 0.01 or 0.02 mg/kg/hr (0.48 mg/kg/day). Mice were anaesthetized with chloral hydrate (400 mg/kg i.p.), and an area on the back of the mice was shaved and cleaned with 70% ethanol. A small incision was made, a pocket beneath the skin was formed and the minipump was placed inside the pocket in each mouse. The incision was sutured, and cleaned with 70% ethanol. The mice were returned in their home cage and in about 2 h they had recovered and were active.
(§2) Once the minipumps implanted (Day 0), the locomotor activity was measured for 1h, at days 2, 4 and 7 in an actimeter (Imetronic, Pessac, France).
(§3) Between-group differences were analyzed with the Statistica™ software using two-way analysis of variance (ANOVA) and Least Significance Difference (LSD) post-hoc test. The analysis of data obtained with the same animals evaluated on several occasions (time-course experiments), between-within univariate or multivariate ANOVA for repeated measures were used (time being the repeated measure). Data from the resident-intruder assay were analyzed by analysis of variance (ANOVA), followed by a Tukey-Kramer Multiple Comparison post-hoc test.

Swiss mice [2] = assay: MK-801 (dizocilpine)-induced and spontaneous locomotor activity, acute treatment, actimeter; assay type: in vivo
Method: (§4) Male Swiss mice (Iffa Credo, France), weighing 25-30 g, were housed four per cage (25 × 15 × 13 cm), on a 12 hr/12 hr light/dark cycle (lights on at 07:00 a.m.), with food and water ad libitum. […] Experiments with D3R-deficient mice were performed on male homozygous mutant mice and their wild-type littermates. […] The mice used in the present study were backcrossed 7 to 8 times.
Haloperidol (Janssen Pharmaceuticals, Beerse, Belgium) and clozapine (Novartis, Basel, Switzerland) were dissolved in a few drops of hydrochloric acid and distilled water, and the pH of the solution was adjusted to pH 5 to 6 using NaOH. […] The compounds were injected i.p. in a volume of 5 ml/kg.
(§5) All experiments were conducted between 2.00 p.m. and 6.00 p.m., and the animals were kept in the test room at least 1 h before recording their activity. […] Counts for forward horizontal activity were incremented each time the animal moved from one-half part of the cage to the other, corresponding to disruption of two crossed parallel beams distant of 14 cm. In time-course studies, counts were summed every 5 min.
as §3, with “measure).” for “measure). Data from the resident-intruder assay were analyzed by analysis of variance (ANOVA), followed by a Tukey-Kramer Multiple Comparison post-hoc test.”
To assess simply the in vivo biological activity of the novel compound at the D3 receptor, the above described test, in which hyperlocomotion induced by low doses of dizocilpine is measured, was used.

wild-type (D3R^+/+) mice = assay: MK-801-induced locomotor activity in wild-type mice; assay type: in vivo; details: haloperidol 0.05 mg/kg; MK-801 […]; D3R^+/+ mice
Method: Male Swiss mice (Iffa Credo, France), weighing 25-30 g, were housed four per cage (25 × 15 × 13 cm), on a 12 hr/12 hr light/dark cycle (lights on at 07:00 a.m.), with food and water ad libitum. […] Experiments with D3R-deficient mice were performed on male homozygous mutant mice and their wild-type littermates. […] Subsequently, these mice were backcrossed up to 8 times with C57BL6 mice. The mice used in the present study were backcrossed 7 to 8 times.
as §5
(§6) In addition, another experiment was performed with two groups of 8 mice of each genotype, injected with either saline or haloperidol (0.05 mg/kg).
as §3, with “measure).” for “measure). Data from the resident-intruder assay were analyzed by analysis of variance (ANOVA), followed by a Tukey-Kramer Multiple Comparison post-hoc test.”

[3] = Plasma concentrations in mice; assay type: in vivo; details: dose inhibiting dizocilpine-induced hyperlocomotion
[4] = Plasma concentrations in monkeys (radioreceptor assay); assay type: in vivo; details: monkey; for time of maximal plasma concentration: in vivo; for half-life: plasma
MPTP-intoxicated monkeys = assay: Levodopa-induced dyskinesia, PD-like symptoms and locomotor activity in MPTP-intoxicated monkeys
Dopamine transporter = Dopamine transporter binding in monkey striatum (autoradiography); set-up: species or system Macaca fascicularis; details: dorsolateral quadrant, rostral level
[5] = system: D3 receptor gene-targeted (D3^-/-) mice; assay: Continuous MK-801 infusion in D3 receptor gene-targeted mice, locomotor activity; assay type: in vivo
Method: as §1, with “A small incision was made, a pocket beneath the skin was formed and the minipump was placed inside the pocket in each mouse. The incision was sutured, and cleaned with 70% ethanol. The mice were returned in their home cage and in about 2 h they had recovered and were active.” left out
as §2, §3

MK-801-treated mice = assay: Resident-intruder assay in MK-801-treated mice; assay type: in vivo; details: MK-801 0.02 mg/kg/h for 7 days vs sham
Method: Male mice were housed individually or in groups of five for at least 1 week prior to minipump implantation (Day 0), delivering MK-801 (0.02 mg/kg/h) or saline (Sham), and were tested at day 7. As described in Dixon et al. (1994), a group-housed male (intruder) was placed in the home cage of the individually housed male (resident), and their behaviors were video recorded for 5 min. […] The videotaped behaviors of the resident or intruder male were individually scored, by an experimenter unaware of the treatment group, for time spent in social investigation (approaching, sniffing, grooming other mouse, and sexual behavior), and in escape behavior (actively avoiding the unfamiliar congener). The scores for each behavior were subsequently averaged for each group.
as §3

[6] = system: D3 receptor-deficient mice (D3R^-/-); assay: MK-801-induced locomotor activity in D3 receptor-deficient mice; assay type: in vivo
Method: as §4, §5, §6
as §3, with “measure).” for “measure). Data from the resident-intruder assay were analyzed by analysis of variance (ANOVA), followed by a Tukey-Kramer Multiple Comparison post-hoc test.”

[7] = habituation phase, 30 min starting 5 min after injection, all doses tested
[8] = dyskinetic levodopa-treated MPTP-monkeys
[9] = non-dyskinetic levodopa-treated MPTP-monkeys
[10] = chronic infusion through osmotic minipumps for 7 days
[11] = one monkey, nafadotride 1.0 mg/kg
[12] = same monkey, nafadotride 1.3 mg/kg

O=C(CCCN1CCC(O)(c2ccc(Cl)cc2)CC1)c1ccc(F)cc1 [haloperidol]
MK-801-induced hyperactivity (Swiss mice [1]; acute administration on the 10th day after minipump implantation, clozapine 1 mg/kg, haloperidol 0.3 mg/kg, BP 897 1 mg/kg): inhibited
spontaneous hyperactivity (Swiss mice [1]; subchronic treatment twice a day for 4.5 days from day 6, BP 897 1 mg/kg, haloperidol 0.3 mg/kg, recorded at least 6 hours after last administration): reversed
methamphetamine-induced hyperactivity (Swiss mice [1]; subchronic treatment twice a day for 4.5 days from day 6, methamphetamine 1 mg/kg, recorded at least 6 hours after last administration): reversed
activity with MK-801 (Swiss mice [2]; MK-801 […], 60 min, compound i.p. 0.1, 0.3, 1 mg/kg (haloperidol 0.03, 0.1, 0.3 mg/kg), overall dose-response): strongly and dose-dependently blocked
MK-801-induced hyperactivity (Swiss mice [2]; compound 0.03 mg/kg i.p., MK-801 […], post-hoc vs saline): significantly reduced
MK-801-induced hyperactivity (Swiss mice [2]; compound 0.1 mg/kg i.p., MK-801 […], post-hoc vs saline): significantly reduced
MK-801-induced hyperactivity (Swiss mice [2]; compound 0.3 mg/kg i.p., MK-801 […], post-hoc vs saline): significantly reduced
spontaneous activity (Swiss mice [2]; compound 0.3 mg/kg i.p., post-hoc vs saline): significantly reduced
spontaneous activity (Swiss mice [2]; [7]): reduction of the spontaneous activity
MK-801-induced locomotor activity (wild-type (D3R^+/+) mice): strongly inhibited

O=C(/C=C/c1ccccc1)NCCCCN1CCc2ccccc2C1 [ST 198, (E)-N-(4-[1,2,3,4-tetrahydroisoquinolin-2-yl]-butyl)-3-phenylacrylamide]
maximal plasma concentration [3]: 3.7 ± 0.2 µM
time of maximal plasma concentration [4]: 30 min
half-life [4]: ~30 min

N[C@@H](Cc1ccc(O)c(O)c1)C(=O)O [levodopa]
parkinsonian score (MPTP-intoxicated monkeys; dyskinetic monkeys under levodopa, parkinsonism corresponds to a score above 6): 0.2 ± 0.1
LID score (MPTP-intoxicated monkeys; five out of nine levodopa-treated monkeys (severe LID), maximum of 4, levodopa 47 to 60 mg/kg twice daily for 6-8 months): 3.4 ± 0.1
LID score (MPTP-intoxicated monkeys; the four remaining levodopa-treated animals): < 0.4

CN1CC=C(c2ccccc2)CC1 [MPTP, 1-methyl-4-phenyl-1,2,3,6-tetrahydropyridine]
decrease of DAT binding in Pu (Dopamine transporter; MPTP-monkeys): 97.1 ± 0.3%
decrease of DAT binding in Cd (Dopamine transporter; MPTP-monkeys, vs controls): 96.3 ± 0.3%
decrease of DAT binding in Cd (Dopamine transporter; [8]): 95.7 ± 0.8%
decrease of DAT binding in Pu (Dopamine transporter; [8]): 95.0 ± 1.3%
decrease of DAT binding in Cd (Dopamine transporter; [9]): 96.7 ± 0.4%
decrease of DAT binding in Pu (Dopamine transporter; [9]): 97.0 ± 0.4%

C[C@]12N[C@H](Cc3ccccc31)c1ccccc12 [MK-801, (+)-5-methyl-10,11-dihydro-5H-dibenzo[a,d]cyclohepten-5,10-imine maleate]
duration of locomotor hyperactivity after cessation of the drug delivery (Swiss mice [1]; [10]): at least 4 days
time at which locomotor hyperactivity first appeared (Swiss mice [1]; [10]): 7 days
hypersensitivity to methamphetamine ([5]; MK-801 0.02 mg/kg/h during 7 days, methamphetamine 1 mg/kg i.p.): completely abolished
attenuation of MK-801-induced hyperactivity compared to wild-type (D3^+/+) mice ([5]; MK-801 0.02 mg/kg/h for 7 days): ~ 50%
locomotor activity after injection of MK-801 (Swiss mice [2]; MK-801 0.12 or 0.3 mg/kg i.p., after 30-min habituation): locomotor hyperactivity
response induced by MK-801 at 0.3 mg/kg relative to […] (Swiss mice [2]; locomotor activity, i.p.): about three
Social investigations, effect of the MK-801 treatment (MK-801-treated mice): reduced
escape behavior, effect of the MK-801 treatment (MK-801-treated mice): enhancement of escape behavior
MK-801-induced hyperactivity compared with wild-type littermates ([6]; D3 receptor-deficient mice): two to three times less
stimulatory effects of MK-801, genotype comparison ([6]; MK-801 0.3 mg/kg, D3R^+/+ vs D3R^-/- mice): no significant differences

CCCCN1CCCC1CNC(=O)c1cc(C#N)c2ccccc2c1OC (stereo not shown) [nafadotride, N[(n-butyl-2-pyrrolidinyl)methyl]-1-methoxy-4-cyano naphtalene-2-carboxamide]
on-time duration (MPTP-intoxicated monkeys; from activity counts, threshold at 30% of the maximal activity, over 5 hr): markedly reduced
LID score (MPTP-intoxicated monkeys; [11]): 0.5
PD-like symptoms score (MPTP-intoxicated monkeys; [11]): 0
score of LID (MPTP-intoxicated monkeys; [12]): 0.5
score of PD-like symptoms (MPTP-intoxicated monkeys; [12]): 4
locomotor activity (activity counts) (MPTP-intoxicated monkeys; with levodopa): strongly reduced
LID (MPTP-intoxicated monkeys; with levodopa, at first active dose, nafadotride on 3 out of 4 monkeys, ST 198 30-90 min after administration): reduction of LID similar to that obtained with BP 897
locomotor response to MK-801 ([6]; compound 1 mg/kg, MK-801 […], D3R^-/- mice): no longer able to inhibit
time of maximal plasma concentration [4]: 60 min
half-life [4]: ~50 min

CN1CCN(C2=Nc3cc(Cl)ccc3Nc3ccccc32)CC1 [clozapine]
spontaneous activity (Swiss mice [2]; [7]): no effect
